Test results as given in patent EP0885006B1, “PHARMACEUTICAL COMPOSITION ENABLING TO INHIBIT CANCER METASTASIS FORMATION CONTAINING N-ACETYL-CYSTEINE AND DOXORUBICIN” (ZAMBON GROUP S.p.A., priority 1996, dated 1997).
Several values for one entry are separate records, joined by “and”; a condition that tells them apart may be missing. Equal values may be shown once.

System: B16-BL6 murine melanoma cells
Assay: Tumorigenicity and "spontaneous" metastasis assay (s.c. footpad injection of cancer cells)
Assay type: in vivo, female C57BL/6 mice
Conditions: for Survival (days) (mean ± ES) / Lung metastases Frequency (%) / Lung metastases No. (mean ± ES) / Primary tumors Frequency (%) / Primary tumors Weight g (mean ± ES) / Local recurrencies Frequency (%) / Local recurrencies Weight g (mean ± ES): DOX+NAC same doses; for reduction in the number of lung metastases with respect to controls / reduction in the weight of primary tumors with respect to controls / weight of primary tumors 4 weeks after injection of cancer cells (effect in words) / reduction in the weight of local recurrencies with respect to controls: combined same doses
Description: DOX was used in the form of commercial injectable product, containing 10 mg of drug per vial (Adriblastina®, Farmitalia - Carlo Erba, Milano, Italia), to be dissolved in distilled water when injected. In the experiments wherein the oral administration was provided, NAC was used in the form of commercial product containing 200 mg of NAC per dosage (Fluimucil®, Zambon Italia, Vicenza), directly dissolved in the drinking water of mice. In the experiments wherein the parenteral (i.p. or i.v.) administration of NAC was foreseen, a 98% pure laboratory reagent (Sigma Chemical Co., St. Louis, MO, U.S.A.) was used, dissolved in a phosphate buffer (PBS), pH 7.4, and furtherly brought to neutrality with NaOH 0.1 N ("spontaneous" metastasis assays) or in NaCl 0.15 M, taking the solution to pH 7.0 (experimental metastasis assays).
A total of 385 adult mice was used (Charles River, Calco, Como, Italia) of which 196 female nude (CD-1)BR mice, aged 7 weeks, average weight of 25 g and 189 female C57BL/6 mice aged 6-8 weeks, average weight of 20 g, used in the experimental metastasis assays and in those of "spontaneous" metastases respectively. The (CD-1)BR mice were housed in sterile cages with filtering cover, in a number of 3 animals per cage, at a room temperature of 26-28°C, with a relative humidity of 55%, a ventilation accounting for 12-15 air/h renewals and a 12 hours day/night cycle; the C57BL/6 mice were stabulated in a number of 5 animals per cage, at a temperature of 25-27°C, with a relative humidity of 50% and a 12 hours day/night cycle. The (CD-1)BR mice received a special diet sterilized under vacuum (Mucedola S.r.L, Settimo Milanese, Milano, Italia) and sterilized drinking water; the C57BL/6 mice received a standard rodent diet (MIL Topi e Ratti, Morini, S. Polo d'Enza, Reggio Emilia, Italia) and drinking water ad libitum throughout the duration of the experiments. Within the experiments wherein the sacrifice of mice was foreseen at a scheduled time, killing was carried out by means of ethyl ether anaesthesia and subsequent cervical dislocation. The stabulation and all the animal treatments were carried out in accordance with the national and Community guidelines (D.L. 27.01.1992 N. 116; 86/609/EEC Directive).
In this kind of experiment, B16-BL6 murine melanoma cells were injected s.c. in the footpad of the right hind leg (5 x 10^5 cells/mouse in experiment #5, 2 x 10^5 cells/mouse in experiments #6, #7 and #8).
With such a technique a primary tumor is formed in the side of injection, from which starts the spread of metastases to the lungs.
Also in these experiments 4 groups were taken into consideration. In all the experiments NAC was administered with drinking water, at a dose of 2 g/kg body weight, starting 48-72 hours before injection of cancer cells and continuing until the end of each experiment. In experiment #5 DOX was administered by i.p. route (2 mg/kg body weight), 24 hours after injection of cancer cells. In experiments #6, #7 and #8 DOX was instead administered by i.v. route (10 mg/kg body weight), 24 hours (#6 and #7) or 7 days (#8) after injection of cancer cells.
In experiments #5, #7 and #8 mice were maintained until spontaneous death, so as to have indications also about the effect of treatment on survival. Both the primary tumors (frequency and weight) and the lung metastases (frequency and number) were therefore evaluated at the time of death.
In experiment #6 instead, 4 weeks after injection of the cancer cells, the leg carrying the primary tumor was removed. Further 4 weeks later the animals were killed, the tumors which gave recurrencies in the leg stump were excised and weighed, and the lung metastases were scored.
Four additional experiments, two of which partially overlapping (#7 and #8) were designed in order to evaluate the effects of NAC and DOX, individually or in combination, on the formation of local primary tumors and on the subsequent spread of lung metastases. […]

[1] = experiment #5, 5 x 10^5 cells/mouse, DOX 2 mg/kg i.p. +24h, NAC 2 g/kg p.o. -48 h/end
[2] = experiment #5, 5 x 10^5 cells/mouse, DOX 2 mg/kg i.p. +24h, NAC 2 g/kg p.o. -48 h/end, at spontaneous death
[3] = experiment #5, DOX 2 mg/kg i.p. +24 h, NAC 2 g/kg p.o.
[4] = experiment #6, 2 x 10^5 cells/mouse, DOX 10 mg/kg i.v. +24h, NAC 2 g/kg p.o. -48 h/56 days, leg removed 4 weeks after cells
[5] = experiment #6, 2 x 10^5 cells/mouse, DOX 10 mg/kg i.v. +24h, NAC 2 g/kg p.o. -48 h/56 days, sacrifice at 8 weeks
[6] = experiment #6, DOX 10 mg/kg +24 h, NAC 2 g/kg p.o.
[7] = experiment #6, DOX 10 mg/kg +24 h, NAC 2 g/kg p.o., 4 weeks
[8] = experiment #6, DOX 10 mg/kg +24 h, NAC 2 g/kg p.o., 8 weeks
[9] = experiment #7 (NAC group common to #7/8), DOX 10 mg/kg i.v. +24 h, NAC 2 g/kg p.o.
[10] = experiment #7, 2 x 10^5 cells/mouse, DOX 10 mg/kg i.v. +24h, NAC 2 g/kg p.o. -72 h/end
[11] = experiment #7, 2 x 10^5 cells/mouse, DOX 10 mg/kg i.v. +24h, NAC 2 g/kg p.o. -72 h/end, at spontaneous death
[12] = experiment #8, 2 x 10^5 cells/mouse, DOX 10 mg/kg i.v. +7 gg. (7 days), NAC 2 g/kg p.o. -72 h/end
[13] = experiment #8, 2 x 10^5 cells/mouse, DOX 10 mg/kg i.v. +7 gg. (7 days), NAC 2 g/kg p.o. -72 h/end, at spontaneous death

| SMILES | Survival (days) (mean ± ES) [1] | Lung metastases Frequency (%) [2] | Lung metastases No. (mean ± ES) [2] | Primary tumors Frequency (%) [2] | Primary tumors Weight g (mean ± ES) [2] | weight of primary tumors (effect in words) [3] | reduction in the number of lung metastases with respect to controls [3] | reduction in the weight of primary tumors with respect to controls [3] | Primary tumors Frequency (%) [4] | Primary tumors Weight g (mean ± ES) [4] | Local recurrencies Frequency (%) [5] | Local recurrencies Weight g (mean ± ES) [5] | Lung metastases Frequency (%) [5] | Lung metastases No. (mean ± ES) [5] | weight of primary tumors 4 weeks after injection of cancer cells (effect in words) [6] | reduction in the weight of primary tumors with respect to controls [7] | reduction in the number of lung metastases with respect to controls [8] | reduction in the weight of local recurrencies with respect to controls [8] | reduction in the number of lung metastases with respect to controls [9] | Survival (days) (mean ± ES) [10] | further results |
| --- | --- | --- | --- | --- | --- | --- | --- | --- | --- | --- | --- | --- | --- | --- | --- | --- | --- | --- | --- | --- | --- |
| CC(=O)N[C@@H](CS)C(=O)O [NAC, N-acetyl-cysteine] | 32.2 ± 2.5 days | 83.3% | 8.3 ± 6.8 No. | 100.0% | 1.9 ± 0.4 g | more than halved | 7.2 fold | 2.1 fold | 93.3% | 0.28 ± 0.04 g | 53.3% | 2.8 ± 0.8 g | 45.5% | 12.9 ± 7.8 No. | not affected | 1.0 fold | 1.6 fold | 0.9 fold | 2.1 fold | 60.1 ± 3.7 days | Lung metastases Frequency (%) [11]: 18.2%; Lung metastases No. (mean ± ES) [11]: 9.5 ± 8.3 No.; Primary tumors Frequency (%) [11]: 100.0%; Primary tumors Weight g (mean ± ES) [11]: 1.9 ± 0.6 g; Survival (days) (mean ± ES) [12]: 60.1 ± 3.7 days; Lung metastases Frequency (%) [13]: 18.2%; Lung metastases No. (mean ± ES) [13]: 9.5 ± 8.3 No.; Primary tumors Frequency (%) [13]: 100.0%; Primary tumors Weight g (mean ± ES) [13]: 1.9 ± 0.6 g; inhibition in the frequency of lung metastases with respect to controls (experiments #7/8, NAC 2 g/kg p.o.): 4.8 fold; survival of mice (effect in words) (experiments #7 and #8, NAC 2 g/kg p.o., DOX 10 mg/kg i.v. +24 h or +7 days): enhanced remarkably the survival |
| COc1cccc2c1C(=O)c1c(O)c3c(c(O)c1C2=O)C[C@@](O)(C(=O)CO)C[C@@H]3O[C@H]1C[C@H](N)[C@H](O)[C@H](C)O1 [DOX, Doxorubicin] | 31.2 ± 4.7 days | 100.0% | 10.0 ± 6.4 No. | 100.0% | 3.0 ± 1.3 g | did not decrease to a significant extent | 6 fold and 6.0 fold | 1.3 fold | 92.3% | 0.21 ± 0.05 g | 69.2% | 2.2 ± 0.7 g | 75.0% | 32.6 ± 12.2 No. | not affected | 1.4 fold | 0.7 fold | 1.1 fold | 0.9 fold | 51.3 ± 1.9 days | Lung metastases Frequency (%) [11]: 76.9%; Lung metastases No. (mean ± ES) [11]: 23.0 ± 10.0 No.; Primary tumors Frequency (%) [11]: 100.0%; Primary tumors Weight g (mean ± ES) [11]: 2.2 ± 0.6 g; survival (effect in words) (experiment #7, DOX 10 mg/kg i.v. 24 hours after injection of cancer cells): prolonged survival; Survival (days) (mean ± ES) [12]: 49.0 ± 2.8 days; Lung metastases Frequency (%) [13]: 63.6%; Lung metastases No. (mean ± ES) [13]: 12.6 ± 9.0 No.; Primary tumors Frequency (%) [13]: 100.0%; Primary tumors Weight g (mean ± ES) [13]: 2.3 ± 0.6 g; survival curves and mean survival time (effect in words) (experiment #8, DOX 10 mg/kg i.v. 7 days after injection of cancer cells, NAC 2 g/kg p.o.): did not affect the survival curves nor the mean survival time |
